Data: ChEMBL document CHEMBL3763116, “Synthesis and evaluation of colletoic acid core derivatives” (Eur J Med Chem, 2016)
One block for each compound: values may come before it.

How the values were obtained:
[1] = target: 11-beta-hydroxysteroid dehydrogenase 1 (Homo sapiens, UniProt P28845); test: Inhibition of 11beta-HSD1 (unknown origin) using cortisol as substrate assessed as NADPH formation by fluorescent plate reader analysis
BJ = test: Cytotoxicity against human BJ cells after 72 hrs by Cell TitreGlo assay; format: cell-based
[2] = target: T1, 11-beta-hydroxysteroid dehydrogenase type 2 (Homo sapiens, UniProt P80365); test: Inhibition of full length human 11beta-HSD2 expressed in HEK293 cells using […] as substrate incubated for 2 hrs by HTRF assay in presence of NAD+; format: cell-based
T1 sequence (P80365 whole entry): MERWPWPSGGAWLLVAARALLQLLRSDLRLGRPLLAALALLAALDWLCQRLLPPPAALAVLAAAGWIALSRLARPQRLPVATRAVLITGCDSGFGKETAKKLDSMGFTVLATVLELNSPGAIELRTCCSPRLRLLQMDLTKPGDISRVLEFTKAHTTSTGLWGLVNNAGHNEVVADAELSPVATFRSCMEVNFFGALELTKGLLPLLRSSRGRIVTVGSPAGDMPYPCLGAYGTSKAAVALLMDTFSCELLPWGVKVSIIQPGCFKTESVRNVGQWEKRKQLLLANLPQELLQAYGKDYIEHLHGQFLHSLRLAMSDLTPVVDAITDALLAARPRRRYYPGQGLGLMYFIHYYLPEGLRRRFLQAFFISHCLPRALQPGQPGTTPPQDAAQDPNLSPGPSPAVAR

11-beta-hydroxysteroid dehydrogenase 1, sequence (P28845 whole entry): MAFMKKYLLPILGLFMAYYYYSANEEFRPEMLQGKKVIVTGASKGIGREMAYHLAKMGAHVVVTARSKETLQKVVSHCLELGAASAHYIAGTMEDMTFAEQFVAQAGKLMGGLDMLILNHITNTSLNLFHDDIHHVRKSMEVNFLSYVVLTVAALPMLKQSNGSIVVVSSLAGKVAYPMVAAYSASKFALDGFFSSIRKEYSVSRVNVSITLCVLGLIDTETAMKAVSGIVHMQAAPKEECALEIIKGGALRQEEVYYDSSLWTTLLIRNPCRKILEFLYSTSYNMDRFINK

Compound: CC(C)=CCC/C(C)=C/CNC(=O)[C@H]1CC=C(C(C)C)[C@]12C=CC(=O)CC2
IC50 [1]: 18 µM
EC50 (BJ): > 90 µM
IC50 [2]: > 1000 µM

Compound: CCOC(=O)[C@H]1CC[C@@H](C(C)C)[C@]12C=CC(=O)CC2
IC50 [1]: > 1000 µM
EC50 (BJ): > 90 µM

Compound: CC(C)C1=CC[C@H]2C(=O)O[C@@H]3CC(=O)CC[C@@]132
IC50 [1]: > 1000 µM
EC50 (BJ): > 90 µM

Compound: CC(C)[C@@H]1CC[C@@H]2CO[C@@H]3[C@H](O)[C@](C)(O)CC[C@]231
IC50 [1]: > 1000 µM
EC50 (BJ): > 90 µM

Compound: CC(C)[C@@H]1CC[C@H](CO)[C@]12CC[C@@](C)(O)C[C@H]2O
IC50 [1]: > 1000 µM
EC50 (BJ): > 90 µM

Compound: CCn1c2ccccc2c2nnc(S(=O)(=O)C[C@H]3CC=C(C(C)C)[C@]34C=CC(=O)CC4)nc21
IC50 [1]: 74 µM
EC50 (BJ): > 90 µM
IC50 [2]: > 1000 µM

Compound: C=C1CC[C@]2(C[C@@H]1OC(C)=O)[C@@H](C(=O)OCC)CC[C@H]2C(C)C
IC50 [1]: > 1000 µM
EC50 (BJ): > 90 µM

Compound: O=C1C=C[C@@]2(CC1)c1ccccc1C[C@@H]2C(=O)O
IC50 [1]: > 1000 µM
EC50 (BJ): > 90 µM

Compound: CC(C)C1=CC[C@H](CS(=O)(=O)c2nnnn2-c2ccccc2)[C@@]12C=CC(=O)CC2
IC50 [1]: 245 µM
EC50 (BJ): > 90 µM
IC50 [2]: > 1000 µM

Compound: C[C@@]1(O)CC[C@]23c4ccccc4C[C@@H]2CO[C@@H]3[C@@H]1O
IC50 [1]: > 1000 µM
EC50 (BJ): > 90 µM

Compound: CC(C)C1=CC[C@H](CO)[C@]12CC[C@](C)(O)[C@H]1O[C@H]12
IC50 [1]: > 1000 µM
EC50 (BJ): > 90 µM

Compound: CC(C)[C@@H]1CC[C@H](CO)[C@]12CC[C@@](C)(O)[C@H]1O[C@H]12
IC50 [1]: > 1000 µM
EC50 (BJ): > 90 µM

Compound: CC(C)C1=CC[C@H](CS(=O)(=O)c2ccc3ccccc3c2)[C@@]12C=CC(=O)CC2
IC50 [1]: 8 µM
EC50 (BJ): > 90 µM
IC50 [2]: > 1000 µM

Compound: CC(C)C1=CC[C@H](C(=O)Nc2ncc(-c3ccc(Cl)cc3)s2)[C@@]12C=CC(=O)CC2
IC50 [1]: 122 µM
EC50 (BJ): > 90 µM
IC50 [2]: > 1000 µM

Compound: CC(C)C1=CC[C@H](Cn2cc(CN(c3ncccn3)S(=O)(=O)c3ccc(N)cc3)nn2)[C@@]12C=CC(=O)CC2
IC50 [1]: > 1000 µM
EC50 (BJ): > 90 µM
IC50 [2]: > 1000 µM

Compound: CC(C)C1=CC[C@H](CO)[C@]12CC[C@@](C)(O)[C@@H](O)C2
IC50 [1]: > 1000 µM
EC50 (BJ): > 90 µM

Second part, led by results:

IC50 [1]: > 1000 µM
Compound: C=C1CC[C@H](C(=O)OCC)[C@@]12C=CC(=O)CC2
EC50 (BJ): > 90 µM

IC50 [1]: > 1000 µM
Compound: CC1=CC[C@H](CO)[C@@]12C=CC(=O)CC2
EC50 (BJ): > 90 µM

IC50 [1]: > 1000 µM
IC50 [2]: > 1000 µM
Compound: CC(C)C1=CC[C@H](CS(=O)(=O)c2nc3ccccc3o2)[C@@]12C=CC(=O)CC2
EC50 (BJ): > 90 µM

IC50 [1]: 341 µM
IC50 [2]: > 1000 µM
Compound: CC(C)C1=CC[C@H](CN2C(=O)c3ccccc3S2(=O)=O)[C@@]12C=CC(=O)CC2
EC50 (BJ): > 90 µM

IC50 [1]: > 1000 µM
Compound: CC(C)(C)[Si](C)(C)OCCC1=CC[C@H](CO)[C@@]12C=CC(=O)CC2
EC50 (BJ): > 90 µM

IC50 [1]: > 1000 µM
Compound: O=C1C=C[C@@]2(CC1)C(c1ccccc1)=CC[C@@H]2CO
EC50 (BJ): > 90 µM

IC50 [1]: > 1000 µM
Compound: CCOC[C@H]1CC=C(C(C)C)[C@]12C=CC(=O)CC2
EC50 (BJ): > 90 µM

IC50 [1]: > 1000 µM
IC50 [2]: > 1000 µM
Compound: CC(C)C1=CC[C@H](CSc2nc3ccccc3s2)[C@@]12C=CC(=O)CC2
EC50 (BJ): > 90 µM

IC50 [1]: > 1000 µM
IC50 [2]: > 1000 µM
Compound: CC(C)C1=CC[C@H](CSc2nnnn2-c2ccccc2)[C@@]12C=CC(=O)CC2
EC50 (BJ): > 90 µM

IC50 [1]: > 1000 µM
Compound: CC(C)C1=CC[C@H](CO)C12CCC(=O)CC2
EC50 (BJ): > 90 µM

IC50 [1]: > 1000 µM
IC50 [2]: > 1000 µM
Compound: CC(C)C1=CC[C@H](CSc2ccc3ccccc3c2)[C@@]12C=CC(=O)CC2
EC50 (BJ): > 90 µM

IC50 [1]: > 1000 µM
Compound: COC1(OC)C=C[C@@]2(CC1)C(C(C)C)=CC[C@@H]2CO
EC50 (BJ): > 90 µM

IC50 [1]: > 1000 µM
IC50 [2]: > 1000 µM
Compound: CC(C)C1=CC[C@H](Cn2cc(CNC(=O)OC(C)(C)C)nn2)[C@@]12C=CC(=O)CC2
EC50 (BJ): > 90 µM

IC50 [1]: > 1000 µM
Compound: O=C1C=C[C@@]2(CC1)C(COCc1ccccc1)=CC[C@@H]2CO
EC50 (BJ): > 90 µM

IC50 [1]: > 1000 µM
IC50 [2]: > 1000 µM
Compound: CC(C)C1=CC[C@H](CS(=O)(=O)c2nc3ccccc3s2)[C@@]12C=CC(=O)CC2
EC50 (BJ): > 90 µM

IC50 [1]: > 1000 µM
Compound: CC(C)C1=CC[C@H](C(=O)O)[C@@]12C=CC(=O)CC2
EC50 (BJ): > 90 µM
